pIC50: −log10 of the molar value.
Legend:
HDAC5 = target: T1, HDAC5 (Homo sapiens, UniProt Q9UQL6); experiment: HDAC5 fluorogenic enzyme assay kit (BPS Bioscience), cell-free; type: biochemical; conditions: 0.001-10 μmol/L inhibitor
T1 construct: purchased BPS Bioscience 50065
Description: Enzyme activity measurements of class I and IIa HDACs were performed using a cell‐free system and according to a method previously described.16 We used fluorogenic HDAC1 (#50061), HDAC2 (#50062), HDAC3 (#50063), HDAC4 (#50064), HDAC5 (#50065), HDAC6 (#50076), HDAC7 (#50067), HDAC8 (#50068) and HDAC9 (#50069) enzyme assay kits from BPS Bioscience (San Diego, CA, USA). To test the enzyme activity of LMK235, 0.001, 0.003, 0.01, 0.03, 0.1, 0.3, 1, 3 and 10 μmol/L concentrations were used. For the IC50 calculations, every data point was normalized to the vehicle (100% activity). The normalized data were fitted with a Hill non‐linear curve fit (OrigionPro 9.0).

HDAC6 = target: T2, HDAC6 (Homo sapiens, UniProt Q9UBN7); experiment: HDAC6 fluorogenic enzyme assay kit (BPS Bioscience), cell-free; type: biochemical; conditions: 0.001-10 μmol/L inhibitor
T2 construct: purchased BPS Bioscience 50076
T2 sequence (Q9UBN7 whole entry): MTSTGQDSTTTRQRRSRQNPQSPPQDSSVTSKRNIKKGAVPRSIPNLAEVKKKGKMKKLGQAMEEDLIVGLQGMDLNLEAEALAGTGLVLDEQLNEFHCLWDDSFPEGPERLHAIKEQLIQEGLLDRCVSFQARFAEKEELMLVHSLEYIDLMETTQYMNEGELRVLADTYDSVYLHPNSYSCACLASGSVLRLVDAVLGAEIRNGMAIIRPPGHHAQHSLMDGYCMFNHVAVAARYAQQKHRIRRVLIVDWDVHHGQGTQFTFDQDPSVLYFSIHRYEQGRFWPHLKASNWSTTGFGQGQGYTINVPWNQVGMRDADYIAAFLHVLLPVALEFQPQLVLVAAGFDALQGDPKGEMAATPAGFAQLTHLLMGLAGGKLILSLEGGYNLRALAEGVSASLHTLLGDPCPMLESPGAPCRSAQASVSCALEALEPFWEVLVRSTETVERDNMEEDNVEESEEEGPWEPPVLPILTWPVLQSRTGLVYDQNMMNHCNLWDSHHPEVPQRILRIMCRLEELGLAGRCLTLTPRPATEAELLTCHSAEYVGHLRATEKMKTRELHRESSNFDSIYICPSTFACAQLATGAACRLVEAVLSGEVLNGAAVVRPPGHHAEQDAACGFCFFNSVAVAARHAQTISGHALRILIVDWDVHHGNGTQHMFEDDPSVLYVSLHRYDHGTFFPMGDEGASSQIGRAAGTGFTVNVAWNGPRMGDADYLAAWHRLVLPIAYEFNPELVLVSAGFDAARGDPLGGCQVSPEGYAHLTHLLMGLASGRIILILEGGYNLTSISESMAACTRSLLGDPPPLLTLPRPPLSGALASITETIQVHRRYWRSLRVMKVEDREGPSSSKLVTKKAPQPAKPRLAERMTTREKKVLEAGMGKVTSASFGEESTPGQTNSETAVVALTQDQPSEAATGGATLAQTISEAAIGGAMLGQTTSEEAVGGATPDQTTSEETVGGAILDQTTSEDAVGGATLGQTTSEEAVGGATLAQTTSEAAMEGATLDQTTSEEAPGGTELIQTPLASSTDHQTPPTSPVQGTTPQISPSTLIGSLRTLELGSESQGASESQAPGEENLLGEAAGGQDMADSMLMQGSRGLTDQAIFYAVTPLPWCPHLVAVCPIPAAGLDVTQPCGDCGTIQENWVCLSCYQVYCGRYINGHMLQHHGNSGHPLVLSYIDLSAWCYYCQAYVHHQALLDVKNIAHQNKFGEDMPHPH

HDAC8 = target: T3, HDAC8 (Homo sapiens, UniProt Q9BY41); experiment: HDAC8 fluorogenic enzyme assay kit (BPS Bioscience), cell-free; type: biochemical; conditions: 0.001-10 μmol/L inhibitor
T3 construct: purchased BPS Bioscience 50068
T3 sequence (Q9BY41 whole entry): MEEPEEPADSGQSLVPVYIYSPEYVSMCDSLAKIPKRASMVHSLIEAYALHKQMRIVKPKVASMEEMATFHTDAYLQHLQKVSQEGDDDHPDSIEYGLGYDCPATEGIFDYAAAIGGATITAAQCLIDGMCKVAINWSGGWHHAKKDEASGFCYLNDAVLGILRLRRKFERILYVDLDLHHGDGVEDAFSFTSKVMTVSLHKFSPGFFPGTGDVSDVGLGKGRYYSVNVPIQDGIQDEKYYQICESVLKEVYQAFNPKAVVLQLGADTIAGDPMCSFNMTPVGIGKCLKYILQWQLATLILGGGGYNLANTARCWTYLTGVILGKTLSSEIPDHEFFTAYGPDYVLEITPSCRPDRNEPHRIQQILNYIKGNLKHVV

AT1 and ACE1 mRNA = AT1 and ACE1 mRNA (qRT-PCR) in aortas of angiotensin II-infusion mice; type: in vivo
Description: (§1) All animal procedures were approved by the Animal Experimental Committee of Chonnam National University Medical School (CNU IACUC‐H‐2014‐47) and carried out in accordance with the Guide for the Care and Use of Laboratory Animals (US National Institutes of Health Publications, 8th edition, 2011). CD‐1 mice (8 weeks old, 30‐35 g) were used in this study. Hypertension was induced by angiotensin II (Ang II, 1.3 mg/kg/day) infusion using 14‐day micro‐osmotic pumps (Alzet, model 1002; infusion rate of 0.25 μL/h) or saline alone. Ang II osmotic pumps were implanted subcutaneously after the injection of ketamine (120 mg/kg) and xylazine (6.2 mg/kg). One week after Ang II infusion, mice were administered LMK235 (1 or 3 mg/kg/day) or vehicle (dimethylsulphoxide [DMSO]) via intraperitoneal injection for 7 days. Mice were divided into three groups (n = 10‐12 per group): sham + vehicle, Ang II + vehicle, and Ang II + LMK235.
Total RNA from aortic tissue was isolated with TRIzol reagent (Invitrogen Life Technologies), and 1 μg of RNA was used for the reverse transcription reaction with TOPscript RT DryMIX (Enzynomics, South Korea). Quantification of mRNA levels was performed with the SYBR Green PCR kit (Enzynomics, South Korea).

rat aortic rings = experiment: Isometric tension: relaxation of U46619-induced contraction in rat aortic rings; design: species or system Sprague‐Dawley rats; conditions: U46619 30 nmol/L, LMK235 cumulative 0.1-100 μmol/L
Description: Male Sprague‐Dawley rats were purchased from Orient Bio (Gyeonggi‐do, South Korea). The thoracic aortas and mesenteric arteries were excised and immersed in an ice‐cold, modified Krebs solution composed of NaCl (115 mmol/L), KCl (4.7 mmol/L), CaCl2 (2.5 mmol/L), MgCl2 (1.2 mmol/L), NaHCO3 (25 mmol/L), KH2PO4 (1.2 mmol/L) and dextrose (10 mmol/L). Mesenteric arteries are secondary branches of the main mesenteric trunk. The aortas and mesenteric arteries were cleaned by removing adherent connective tissue, soaked in the Krebs‐bicarbonate solution and cut into four ring segments (3.5 mm in length), as described previously.14 Some rings were denuded of endothelium by gently rubbing the internal surface with the edge of the forceps. Each aortic ring was suspended in a water‐jacketed organ bath (6 mL) maintained at 37°C and aerated with a mixture of 95% O2 and 5% CO2. Each ring was connected to an isometric force transducer (Danish Myo Technology, Skejbyparken, Aarhus N, Denmark). Rings were stretched to an optimal resting tension of 2.0 g, which was maintained throughout the experiment. Each ring was equilibrated in the organ bath solution for 90 minutes before the experiment involving the contractile response to 50 mmol/L of KCl addition. […]

HUVECs = experiment: Nitric oxide production in HUVECs (DAF-FM DA fluorescence); type: cell-based, Human; conditions: 1 μmol/L, 24 h
Description: A10 vascular smooth muscle cells (VSMCs) were incubated with Dulbecco's modified Eagle medium (DMEM) with 4500 mg/L glucose containing 10% foetal bovine serum (FBS). Passages were carried out every 2 or 3 days. VSMCs were maintained in DMEM in the presence of 10% FBS with low glucose (1000 mg/L). Human umbilical vein endothelial cells (HUVECs) were obtained from Gibco (Waltham, MA, USA). HUVECs were grown in an endothelial cell basal medium (EBM) with EGM‐2 bullet kit (Lonza, Walkersville, MD) and maintained at 37°C under 5% CO2. Cells were cultured for 5‐7 passages.
We used a nitric oxide‐sensitive fluorescence probe, 4‐amino‐5‐methylamino‐2′,7′‐difluorescein diacetate (DAF‐FM DA, Cayman), for nitric oxide detection. HUVECs were seeded on coverslips in 12‐well plates (1.5 × 10^5/mL). Cells, serum‐starved with EBM for 16 hour, were treated with LMK235 (1 μmol/L) or L‐NAME (250 μmol/L) for 24 hour and incubated with DAF‐FM DA (2.5 μmol/L) for 45 minutes. Next, the cells were fixed with 70% ethanol for 45 minutes and mounted using Prolog Gold antifade reagent and DAPI (Invitrogen, USA).

[1] = system: angiotensin II‐infusion mice; experiment: Aortic wall thickness (H&E) in angiotensin II-infusion mice; type: in vivo; conditions: Ang II-infusion mice; 3 mg/kg/day for 1 week
Description: as §1
The paraffin‐embedded tissues were cut into 3‐μm‐thick sections, deparaffinized with xylene and then rehydrated with graded alcohol. Haematoxylin and eosin (H&E) staining was performed as described, with slight modifications.15 The arterial wall thickness was measured using NIS Elements Software (Nikon, Japan).

SHR aortas = experiment: Aortic wall thickness (H&E) in SHRs; type: in vivo, rats
Description: For the essential hypertension animal experiment, SHRs were used. The SHR is the most used model animal model for hypertension and is generally regarded as an essential hypertension model.13 SHRs (6 weeks old, approximately 170 g) were purchased from Charles River (Yokohama, Japan). Rats were intraperitoneally administered LMK235 or vehicle every 3 days for 2 weeks (n = 4 per group). The paraffin‐embedded tissues were cut into 3‐μm‐thick sections, deparaffinized with xylene and then rehydrated with graded alcohol. Haematoxylin and eosin (H&E) staining was performed as described, with slight modifications.15 The arterial wall thickness was measured using NIS Elements Software (Nikon, Japan).

T1 sequence (Q9UQL6 whole entry): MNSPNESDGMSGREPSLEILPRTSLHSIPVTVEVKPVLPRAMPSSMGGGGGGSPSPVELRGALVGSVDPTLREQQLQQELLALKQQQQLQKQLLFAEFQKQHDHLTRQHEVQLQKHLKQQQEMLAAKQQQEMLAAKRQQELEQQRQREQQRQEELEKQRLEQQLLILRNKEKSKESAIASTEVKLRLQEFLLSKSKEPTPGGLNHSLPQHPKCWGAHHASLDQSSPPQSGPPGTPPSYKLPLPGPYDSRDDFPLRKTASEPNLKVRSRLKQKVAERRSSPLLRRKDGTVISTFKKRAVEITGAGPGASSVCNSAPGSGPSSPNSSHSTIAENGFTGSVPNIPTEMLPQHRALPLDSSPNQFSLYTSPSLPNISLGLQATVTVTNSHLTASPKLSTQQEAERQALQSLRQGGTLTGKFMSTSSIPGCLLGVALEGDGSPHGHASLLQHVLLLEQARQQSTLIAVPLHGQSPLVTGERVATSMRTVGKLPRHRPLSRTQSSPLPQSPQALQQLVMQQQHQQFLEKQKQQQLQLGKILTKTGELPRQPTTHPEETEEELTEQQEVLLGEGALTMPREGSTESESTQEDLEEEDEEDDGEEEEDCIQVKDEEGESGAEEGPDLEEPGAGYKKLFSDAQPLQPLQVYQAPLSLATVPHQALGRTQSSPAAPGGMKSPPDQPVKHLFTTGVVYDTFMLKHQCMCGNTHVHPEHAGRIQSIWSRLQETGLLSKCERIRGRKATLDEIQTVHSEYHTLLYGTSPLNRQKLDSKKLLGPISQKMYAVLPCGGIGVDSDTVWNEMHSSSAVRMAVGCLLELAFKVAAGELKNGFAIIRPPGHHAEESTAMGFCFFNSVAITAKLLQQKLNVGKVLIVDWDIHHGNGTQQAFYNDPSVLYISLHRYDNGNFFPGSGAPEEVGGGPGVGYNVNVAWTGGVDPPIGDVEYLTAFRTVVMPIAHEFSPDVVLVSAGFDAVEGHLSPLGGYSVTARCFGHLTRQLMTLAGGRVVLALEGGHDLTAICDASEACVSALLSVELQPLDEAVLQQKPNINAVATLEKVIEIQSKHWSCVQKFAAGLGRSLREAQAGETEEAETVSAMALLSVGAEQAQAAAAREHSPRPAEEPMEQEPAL

Question: How did the pIC50 (HDAC5) turn out when `Cc1cc(C)cc(C(=O)NOCCCCCC(=O)NO)c1` [LMK235] was run?
Answer: Its pIC50 is < 4.70.

Question: What about the pIC50 (HDAC6) of the same molecule?
Answer: Its pIC50 is 7.30.

Question: And the pIC50 (HDAC8)?
Answer: The pIC50 was 5.95.

Question: What about the “AT1 transcript levels in aorta” value (AT1 and ACE1 mRNA; Ang II-infusion mice) of the same molecule?
Answer: Its value is “not reduced”.

Question: What about the “aortic ACE1 or AT1 expression” value (AT1 and ACE1 mRNA; either hypertension model (Ang II mice and SHRs)) of the same molecule?
Answer: Its value is “did not affect”.

Question: What about the U46619-induced vasoconstriction (rat aortic rings; endothelium-denuded aortic rings) of the same molecule?
Answer: The U46619-induced vasoconstriction was “inhibited”.

Question: And the U46619-induced vasoconstriction (rat aortic rings; endothelium-intact aortic rings)?
Answer: The U46619-induced vasoconstriction was “dose dependently reduced”.

Question: And the nitric oxide production (HUVECs)?
Answer: Its nitric oxide production is “increased nitric oxide production”.

Question: And the aortic wall thickness [1]?
Answer: The aortic wall thickness was “completely inhibited the increased aortic wall thickness”.

Question: What about the aortic wall thickness (SHR aortas) of the same molecule?
Answer: Its aortic wall thickness is “reduced”.
